“Also recorded” adds a separate entry of the source.
Assays:
BWΔtolC strain = assay: Growth inhibition in 2YT liquid medium (off-target activity); assay type: cell-based, E. coli
Procedure: (§1) Bacteria were grown in 2YT broth supplemented, when required, with ampicillin or kanamycin at concentrations of 100 and 50 µg/ml, respectively. The BWΔtolC strain was obtained from the Keio collection. The BWΔbacAΔtolC and BWbacA-singleΔtolC were generated by P1 transduction of the ΔtolC::Kan^R cassette from BWΔtolC strain to BWΔbacA and DMEG9 recipient strains, respectively. The strains S. aureus RN4220 and S. pneumoniae R6 were used to evaluate the antibacterial activity of certain compounds. S. aureus was grown on BHI (Brain Heart Infusion) broth and S. pneumoniae was grown on Colombia broth supplemented with 5% horse blood.
(§2) For compounds displaying inhibitory activity on BacA catalysis, their antibacterial activity was tested on different E. coli strains by monitoring bacterial growth in the presence of compounds (125, 250 and 500 µM). One colony was cultured in 10 ml of 2YT liquid medium and incubated at 37℃ for 6 h. The absorbance of the culture at 600 nm (A600) was measured to prepare a bacterial suspension in 2YT liquid medium at 15.10^6 CFU/ml (A600 = 1 corresponds to 3.10^8 CFU/ml). The bacterial suspension (200-µl) was then grown on 96-well plates in the presence or not of compounds (5-µl), which was added from a stock solution prepared in DMSO. Negative controls were then performed by growing the cells without inhibitors in 2YT medium and in 2YT medium supplemented with 2.5% of DMSO. The plates were incubated at 37℃ overnight with A600 measurements every 10 min using a Tecan F200 PRO microplate reader (iControl software).

BWΔbacAΔtolC strain = assay: Growth inhibition in 2YT liquid medium; assay type: cell-based, E. coli; details: BacA and TolC depleted; 500 µM compound
Procedure: as §1
For compounds displaying inhibitory activity on BacA catalysis, their antibacterial activity was tested on different E. coli strains by monitoring bacterial growth in the presence of compounds (125, 250 and 500 µM). One colony was cultured in 10 ml of 2YT liquid medium and incubated at 37℃ for 6 h. The absorbance of the culture at 600 nm (A600) was measured to prepare a bacterial suspension in 2YT liquid medium at 15.10^6 CFU/ml (A600 = 1 corresponds to 3.10^8 CFU/ml). […] The plates were incubated at 37℃ overnight with A600 measurements every 10 min using a Tecan F200 PRO microplate reader (iControl software). […]

[1] = tested on: E. coli BW25113 wild type strain; assay: Growth inhibition in 2YT liquid medium; assay type: cell-based; details: 500 µM compound
Procedure: as §2
(§3) Two compounds, 3 and 5, were assessed for antibacterial activity using the broth microdilution method against the E. coli BW25113 wild type strain. […] Considering the plurality of C55-PP phosphatases in E. coli, the inhibition of BacA may not induce growth inhibition as long as the PAP2 enzymes (PgpB, YbjG, and LpxT) are functional. Consequently, compounds 3 and 5 were tested against a BW25113 variant in which the PAP2 enzymes were depleted (DMEG9 strain, alias BWbacA-single). […]

[2] = tested on: BWbacA-singleΔtolC strain overexpressing an ectopic copy of the bacA gene on a plasmid; assay: Growth inhibition upon bacA overexpression; assay type: cell-based, E. coli; details: bacA overexpressed in trans; 500 µM compound
Procedure: as §2
(§4) To further assess the specificity of compounds 3 and 5 with respect to BacA, they were tested against the strain depleted of both TolC and PAP2 but overexpressing an ectopic copy of the bacA gene on a plasmid.

[3] = tested on: BWbacA-singleΔtolC strain carrying the empty vector (pTRCH30); assay: Growth inhibition, control strain carrying the empty vector; assay type: cell-based, E. coli; details: 500 µM compound
Procedure: as §2, §4

[4] = tested on: BWbacA-singleΔtolC strain; assay: Growth inhibition / MIC in 2YT liquid medium; assay type: cell-based, E. coli; details: for MIC: BWbacA-singleΔtolC strain
Procedure: as §1, §2

PgpB = biological target: T1, PgpB (Escherichia coli, UniProt P0A924); assay: C55-PP phosphatase assay of PgpB; assay type: biochemical, E. coli; details: 100 µM compound; data not shown
T1 construct: made in house
T1 sequence (P0A924 whole entry): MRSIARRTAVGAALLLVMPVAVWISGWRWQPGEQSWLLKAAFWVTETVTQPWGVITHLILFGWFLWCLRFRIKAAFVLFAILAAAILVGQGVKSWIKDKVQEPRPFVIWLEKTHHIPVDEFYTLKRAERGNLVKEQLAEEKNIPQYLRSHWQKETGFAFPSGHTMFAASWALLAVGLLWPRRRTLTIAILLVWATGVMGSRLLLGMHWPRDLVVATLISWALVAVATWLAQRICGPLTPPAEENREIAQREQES
Procedure: C43(DE3) cells carrying pTrcBac30 plasmid were used for the expression of N-terminally His6-tagged BacA (His6-BacA) protein from E. coli. Cells were grown in 2YT-ampicillin at 37 °C and when the OD600 reached 0.9, the temperature of the culture was decreased to 22 °C and protein expression was induced by addition of 1 mM IPTG. Incubation was continued overnight at 22 °C and bacteria were harvested in the cold and washed in a buffer containing 20 mM Tris-HCl, pH 7.4, 0.4 M NaCl, 10% glycerol and 10 mM β-mercaptoethanol (buffer A). The cells were disrupted by three successive passages through a French press and the suspension was centrifuged at 200,000× g, 4 °C for 45 min. The pellet of membranes was washed with buffer A. The membranes were resuspended in buffer A supplemented by 2% DDM detergent. […] Fractions containing the BacA protein were subjected to an additional gel-filtration purification step on Superdex 200 (HiLoadTM 16/600 SuperdexTM 200) equilibrated in 0.1% DDM-containing buffer A. 1-ml fractions were collected and analysed by SDS-PAGE. […]
The C55-PP phosphatase activity of BacA was assessed by measuring the percentage of transformation of [^14C]C55-PP into [^14C]C55-P upon incubation with BacA by TLC analysis. […] The radioactive spots were located and quantified with a radioactivity scanner. […] The C55-PP phosphatase activity of PgpB was measured as described for BacA.

[5] = tested on: DMEG9 strain, alias BWbacA-single; assay: Growth inhibition in 2YT liquid medium; assay type: cell-based, E. coli; details: PAP2-depleted DMEG9; 500 µM compound
Procedure: as §2, §3

O=C(O)c1csc(S(=O)(=O)Nc2ccc3sccc3c2)c1 [Compound 3]
increase of the doubling time of cells (BWΔtolC strain; BWΔtolC, 500 µM compound): 3 fold
growth inhibition (BWΔtolC strain; TolC-depleted BWΔtolC, 500 µM compound): moderate inhibition; also recorded: significant growth inhibition
Off-target activity (BWΔtolC strain; antibacterial activity against BWΔtolC): Yes
growth inhibition (BacA-independent activity) (BWΔbacAΔtolC strain): moderate inhibition; also recorded: significant, although moderate, BacA-independent activity
growth inhibition [1]: No growth inhibition
growth inhibition upon bacA overexpression [2]: partially alleviated growth inhibition; also recorded: susceptibility was decreased at the level observed with the strain depleted of TolC alone
growth inhibition [3]: total growth inhibition
MIC [4]: 169 µg/mL
MIC ([4]; 125, 250 and 500 µM tested): 500 µM
class of antibacterial activity (Figure S2) ([4]; BWΔtolC and BWbacA-singleΔtolC strains, 250 and 500 µM): antibacterial activity on both strains
growth inhibition ([4]; TolC/PAP2-depleted BWbacA-singleΔtolC, 500 µM compound): complete growth inhibition; also recorded: total growth inhibition
inhibition of PgpB (PgpB): not inhibited
growth inhibition [5]: no growth inhibition
